Test results reported in ChEMBL document CHEMBL1153272, “(2-Aryl-5-methylimidazol-4-ylcarbonyl)guanidines and (2-aryl-5-methyloxazol-4-ylcarbonyl)guanidines as NHE-1 inhibitors” (Bioorg Med Chem Lett, 2009).
pIC50: −log10 of the molar value.

Columns and labels:
[1] = target: Sodium/hydrogen exchanger 1 (Homo sapiens, UniProt P19634); experiment: Inhibition of human NHE1 expressed in PS120 cells assessed as imposed acidosis; type: cell-based
Heart [2] = experiment: Cardioprotective activity in Langendorff perfused rat heart assessed as left ventricular end diastolic pressure at 10 uM treated 10 mins before global ischemia challenge for 30 mins followed by 30 mins of reperfusion; type: functional
Heart [3] = experiment: Cardioprotective activity in Langendorff perfused rat heart assessed as recovery of rate pressure product at 10 uM treated 10 mins before global ischemia challenge for 30 mins followed by 30 mins of reperfusion; type: functional
Rattus norvegicus = experiment: Cardioprotective activity in Langendorff perfused rat myocardial infarction model assessed as ratio of myocardial infarction size to area at risk at 0.1 mg/kg, iv administered 5 mins before onset ischemia challenge followed by 90 mins reperfusion; type: functional, Myocardium

Sodium/hydrogen exchanger 1, sequence (P19634 whole entry, the tested form may be a part): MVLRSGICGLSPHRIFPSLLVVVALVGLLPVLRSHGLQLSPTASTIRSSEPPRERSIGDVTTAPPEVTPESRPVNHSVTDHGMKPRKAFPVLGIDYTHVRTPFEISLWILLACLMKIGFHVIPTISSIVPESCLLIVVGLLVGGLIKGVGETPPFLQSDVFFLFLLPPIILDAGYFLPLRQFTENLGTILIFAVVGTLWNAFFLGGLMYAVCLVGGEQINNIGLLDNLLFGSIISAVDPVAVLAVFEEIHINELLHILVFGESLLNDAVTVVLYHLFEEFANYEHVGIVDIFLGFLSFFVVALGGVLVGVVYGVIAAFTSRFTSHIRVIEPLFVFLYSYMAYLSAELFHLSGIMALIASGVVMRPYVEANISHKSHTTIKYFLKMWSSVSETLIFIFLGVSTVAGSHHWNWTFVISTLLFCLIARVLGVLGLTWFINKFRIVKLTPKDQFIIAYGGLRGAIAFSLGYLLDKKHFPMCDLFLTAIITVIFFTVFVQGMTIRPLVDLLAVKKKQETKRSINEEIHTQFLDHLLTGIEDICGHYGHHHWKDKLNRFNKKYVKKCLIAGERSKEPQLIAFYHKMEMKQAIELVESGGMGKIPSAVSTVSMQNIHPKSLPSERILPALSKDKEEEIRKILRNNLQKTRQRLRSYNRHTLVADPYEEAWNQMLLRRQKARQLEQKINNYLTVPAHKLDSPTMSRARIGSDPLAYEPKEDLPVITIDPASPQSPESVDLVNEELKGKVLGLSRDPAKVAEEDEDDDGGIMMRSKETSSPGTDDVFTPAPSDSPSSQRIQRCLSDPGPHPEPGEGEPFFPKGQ

SMILES	pIC50 [1]	Activity (Heart [2]) [%]	Activity (Heart [3]) [%]	Activity (Rattus norvegicus) [%]
Cc1[nH]c(-c2cccc(F)c2)nc1C(=O)N=C(N)N	5.35			
Cc1[nH]c(-c2ccc(F)cc2)nc1C(=O)N=C(N)N	< 4.52			
CS(=O)(=O)O.Cc1oc(-c2cc(Cl)ccc2Cl)nc1C(=O)N=C(N)N	7.14	27	19	39
Cc1cccc(-c2nc(C(=O)N=C(N)N)c(C)[nH]2)c1C	< 4.52			
CS(=O)(=O)O.CS(=O)(=O)O.Cc1ccc(C)c(-c2nc(C(=O)N=C(N)N)c(C)[nH]2)c1	5.96	32	33	45
Cc1cc(C)cc(-c2nc(C(=O)N=C(N)N)c(C)[nH]2)c1	5.30			
Cc1ccccc1-c1nc(C(=O)N=C(N)N)c(C)[nH]1	5.62			
Cc1cccc(-c2nc(C(=O)N=C(N)N)c(C)[nH]2)c1	4.92			
Cc1[nH]c(-c2ccccc2)nc1C(=O)N=C(N)N	4.92			
Cc1[nH]c(-c2cccc(Cl)c2)nc1C(=O)N=C(N)N	5.35			
Cc1[nH]c(-c2ccc(Cl)cc2)nc1C(=O)N=C(N)N	< 4.52			
Cc1[nH]c(-c2cccc(F)c2F)nc1C(=O)N=C(N)N	5.18			
CS(=O)(=O)O.CS(=O)(=O)O.Cc1[nH]c(-c2ccccc2Cl)nc1C(=O)N=C(N)N	5.85	35	69	50
COc1cccc(-c2nc(C(=O)N=C(N)N)c(C)[nH]2)c1OC	< 4.52			
Cc1[nH]c(-c2ccccc2F)nc1C(=O)N=C(N)N	5.14			
COc1cccc(-c2nc(C(=O)N=C(N)N)c(C)[nH]2)c1	5.39			
Cc1[nH]c(-c2cccc(Cl)c2Cl)nc1C(=O)N=C(N)N	6.30			
CS(=O)(=O)O.CS(=O)(=O)O.Cc1[nH]c(-c2cc(Cl)ccc2Cl)nc1C(=O)N=C(N)N	7.00	25	59	40
COc1ccc(F)cc1-c1nc(C(=O)N=C(N)N)c(C)[nH]1.CS(=O)(=O)O.CS(=O)(=O)O	6.10	29	27	

SMILES	pIC50 [1]	Activity (Heart [2]) [%]	Activity (Heart [3]) [%]	Activity (Rattus norvegicus) [%]
Cc1oc(-c2ccccc2)nc1C(=O)N=C(N)N	5.09			
Cc1cccc(-c2nc(C(=O)N=C(N)N)c(C)o2)c1	5.18			
CS(=O)(=O)O.Cc1oc(-c2cc(Cl)cc(Cl)c2)nc1C(=O)N=C(N)N	6.05	25	26	
Cc1oc(-c2cc(F)ccc2F)nc1C(=O)N=C(N)N	5.55			
COc1ccc(Cl)cc1-c1nc(C(=O)N=C(N)N)c(C)[nH]1.CS(=O)(=O)O.CS(=O)(=O)O	6.62	28	60	34
Cc1oc(-c2cc(F)cc(F)c2)nc1C(=O)N=C(N)N	5.48			
Cc1oc(-c2cccc(Cl)c2)nc1C(=O)N=C(N)N	5.77			
Cc1oc(-c2ccc(Cl)cc2)nc1C(=O)N=C(N)N	< 4.52			
Cc1cc(C)cc(-c2nc(C(=O)N=C(N)N)c(C)o2)c1	5.15			
COc1ccccc1-c1nc(C(=O)N=C(N)N)c(C)[nH]1	5.51			
Cc1oc(-c2cccc(F)c2)nc1C(=O)N=C(N)N	5.38			
Cc1[nH]c(-c2cc(F)ccc2F)nc1C(=O)N=C(N)N	5.52			
CS(=O)(=O)O.Cc1[nH]c(-c2cc(Cl)cc(Cl)c2)nc1C(=O)N=C(N)N	6.28	28	23	
COc1ccc(-c2nc(C(=O)N=C(N)N)c(C)[nH]2)cc1OC	5.68			
COc1ccc(-c2nc(C(=O)N=C(N)N)c(C)[nH]2)cc1	< 4.52			
Cc1[nH]c(-c2cc(F)cc(F)c2)nc1C(=O)N=C(N)N	5.57			
Cc1ccc(-c2nc(C(=O)N=C(N)N)c(C)[nH]2)cc1	< 4.52			
CS(=O)(=O)O.Cc1ccc(C)c(-c2nc(C(=O)N=C(N)N)c(C)o2)c1	6.66	9	59	47
CC(C)c1ccc(C(=O)N=C(N)N)cc1S(C)(=O)=O.CS(=O)(=O)O [CARIPORIDE MESYLATE]		22	48	41
